Source: patent US8754040B2, “Cyclic peptide compound, method for producing same, anti-infective agent, antibiotic-containing fraction, antibiotic, method for producing antibiotic, antibiotic-producing microorganism, and antibiotic produced by same” (priority 2010, dated 2014)
In brackets after ≈: the same amount, converted by molar mass. Positions of bridges follow the written chain, without caps; N, C: chain ends. Non-standard residues stand in square brackets, D forms with d. Residues, ends and D or L forms follow the SMILES beside them. *: point of attachment. Hexanoyl(3-OH,5-Me) = CC(C)CC(O)CC(=O)*; dNMeF = CN[C@H](Cc1ccccc1)C(=O)O

Columns and labels:
[1] = test system: Staphylococcus aureus (MRSA4)
Text: (§1) Antibacterial activity of the antibiotic-substance-containing fraction at each fractionation stage from a culture produced from RH2180-5 and that of the antibiotic substance obtained therefrom by separation and purification thereof can be evaluated by MIC. […] For example, it is done with a broth microdilution method based on CLSI (formerly NCCLS: National Committee for Clinical Laboratory Standards).
(§2) Antibacterial spectrum of the RH2180-5 Peak 5 Substance to various bacteria including MRSA and VRE was studied. In addition, influence of chemical resistance was also studied. For study of the latter, Staphylococcus aureus and Enterococcus faecalis were selected, wherein measurement of MIC value of each peak substance was made by a broth microdilution method based on CLSI (formerly NCCLS: National Committee for Clinical Laboratory Standards) as to Staphylococcus aureus not showing resistance to a chemical (hereinafter abbreviated as “MSSA 1”) and two kinds of MRSA showing resistance to many chemicals including methicillin (MRSA 3 and MRSA 4; see Table 3 for resistive chemicals) for Staphylococcus aureus; and as to Enterococcus faecalis not showing resistance to a chemical (hereinafter abbreviated as “EF 1”) and showing resistance to vancomycin (hereinafter abbreviated as “VRE”) for Enterococcus faecalis.
(§3) Test microorganisms of Staphylococcus aureus and Enterococcus faecalis, the same as Test Example 1, were selected; and measurement of MIC value of each peak substance was made by a broth microdilution method based on CLSI (formerly NCCLS: National Committee for Clinical Laboratory Standards) as to MSSA 1 and EF 1, and MRSA 3, MRSA 4, and VRE, the same as Test Example 1.
(§4) Antibacterial spectrum of the foregoing RH2180-5 Peak 5 Substance to various microorganisms including MRSA and VRE was studied. Each MIC value for the case added with 10% blood serum and for the case not added with the same was measured by a broth microdilution method based on CLSI (formerly NCCLS: National Committee for Clinical Laboratory Standards).

[2] = test system: Staphylococcus aureus (MSSA1); conditions: MSSA1
Text: as §1, §2, §3, §4

[3] = test system: Staphylococcus aureus (MRSA3)
Text: as §1, §2, §3, §4

[4] = test system: Enterococcus faecalis (VRE)
Text: as §1, §2, §3, §4

[5] = test system: Enterococcus faecalis (EF1)
Text: as §1, §2, §3, §4

[6] = test system: Staphylococcus aureus; format: cell-based
Experimental: A soil taken from various places was suspended in a physiological saline solution, and then the supernatant thereof was applied on a GA medium and a HV medium; and after incubation at 30° C., grown bacteria was separated and then cultured in an YME medium, a SGM medium, or a CDY medium at 30° C. for 5 days. Equal amount of acetone was added thereinto; and after they were suspended and centrifugally separated, the resulting supernatant was evaporated. The residue thus resulted was diluted with a physiological saline solution, and then the antibacterial activity thereof to Staphylococcus aureus was evaluated by MIC with a broth microdilution method. As a result, antibacterial activity was found in culture supernatant of 3487 strains out of 14346 strains.

[7] = test system: Staphylococcus aureus; assay: silkworm Staphylococcus aureus infection model (therapeutic effect); format: in vivo, silkworm (larva of Bombyx mori); conditions: purification stages, Table 2
Text: In the present invention too, a first screening to narrow down effective strains from several tens of thousands of extraordinary large numbers of strains may be done by any method as far as the antibacterial activity can be evaluated with the said method; and thus, for example, by referring to MIC, test bodies showing the antibacterial activity to Staphylococcus aureus in culture supernatant of each strain may be picked up. This is because strains not showing the antibacterial activity at all are not in the scope of examination. Any method capable of evaluating the antibacterial activity may be used; but a method with which a strain recognized to show, with referring to MIC, the antibacterial activity to Staphylococcus aureus in culture supernatant of various test strains is picked up is preferable. […]
Strains recognized to show the therapeutic effect in the silkworm Staphylococcus aureus infection model are further subjected to various separation and purification treatments wherein the therapeutic effect is evaluated in each operation by using the silkworm Staphylococcus aureus infection model. […]

[8] = test system: Smith strain of Staphylococcus aureus; assay: mouse Staphylococcus aureus infection model (therapeutic effect); format: in vivo, mouse (ICR female); conditions: Staphylococcus aureus, ip
Experimental: Smith strain of Staphylococcus aureus was suspended in 7% mucin+0.2 mM ferric ammonium citrate, and 6.2×10^6 (20×LD50) thereof was administered into the peritoneal cavity of 5 mice per group (ICR female of four weeks of age). Each drug was injected hypodermically 2 hours after administration of the bacterium by the method shown below.
Similarly, ED50 of vancomycin to the mouse model used this time was studied. […] Here, ED50 values were obtained by the probit method.

[9] = test system: Staphylococcus aureus; assay: survived cell numbers (CFU) of Staphylococcus aureus after drug addition; format: cell-based
Experimental: To CA-Mueller Hinton Broth medium were taken 1.8×10^8 Staphylococcus aureus, and then the foregoing RH2180-5 Peak 5 Substance (25 μg/mL), vancomycin (VM, 5 μg/mL), and gentamicin (GM, 2.5 μg/mL) were added thereinto; and then, survived cell numbers after 15 minutes, 30 minutes, 60 minutes, and 120 minutes were obtained as CFU (colony forming unit/mL).

CC[C@H](C)[C@@H]1NC(=O)[C@@H](Cc2c[nH]c3ccccc23)NC(=O)[C@@H](CCC(N)=O)NC(=O)[C@H](CCC(=O)O)NC(=O)[C@@H](CCCNC(=N)N)NC(=O)[C@H](CC(C)C)NC(=O)[C@@H](Cc2ccccc2)NC(=O)CNC(=O)[C@H](CO)NC(=O)[C@@H](CCCNC(=N)N)NC(=O)[C@@H](NC(=O)CC(O)CCCC(C)C)[C@@H](C)OC(=O)[C@H]([C@@H](C)O)NC1=O (single isomer, unassigned) [Peak P3]
MIC [1]: 25 µg/mL (≈ 15.3 µM)
MIC [2]: 25 µg/mL (≈ 15.3 µM)
MIC [3]: 25 µg/mL (≈ 15.3 µM)
MIC [4]: 50 µg/mL (≈ 30.6 µM)
MIC [5]: 50 µg/mL (≈ 30.6 µM)

CC[C@H](C)[C@@H]1NC(=O)[C@@H](Cc2c[nH]c3ccccc23)NC(=O)[C@@H](CCC(N)=O)NC(=O)[C@H](CCC(=O)O)NC(=O)[C@@H](CCCNC(=N)N)NC(=O)[C@H](CC(C)C)NC(=O)[C@@H](Cc2ccccc2)NC(=O)CNC(=O)[C@H](CO)NC(=O)[C@@H](CCCNC(=N)N)NC(=O)[C@@H](NC(=O)CC(O)CCCC(C)C)[C@@H](C)OC(=O)[C@H]([C@@H](C)O)NC1=O (single isomer, unassigned) [Peak P4]
MIC [1]: 12.5 µg/mL (≈ 7.66 µM)
MIC [2]: 12.5 µg/mL (≈ 7.66 µM)
MIC [3]: 25.0 µg/mL (≈ 15.3 µM)
MIC [4]: 25 µg/mL (≈ 15.3 µM)
MIC [5]: 50 µg/mL (≈ 30.6 µM)

CC[C@H](C)[C@@H]1NC(=O)[C@@H](Cc2c[nH]c3ccccc23)NC(=O)[C@@H](CCC(N)=O)NC(=O)[C@H](CCC(=O)O)NC(=O)[C@@H](CCCNC(=N)N)NC(=O)[C@H](CC(C)C)NC(=O)[C@@H](Cc2ccccc2)N(C)C(=O)CNC(=O)[C@H](CO)NC(=O)[C@@H](CCCNC(=N)N)NC(=O)[C@@H](NC(=O)CC(O)CCC(C)C)[C@@H](C)OC(=O)[C@H]([C@@H](C)O)NC1=O (single isomer, unassigned) [Peak P7]
MIC [1]: 12.5 µg/mL (≈ 7.66 µM)
MIC [2]: 12.5 µg/mL (≈ 7.66 µM)
MIC [3]: 12.5 µg/mL (≈ 7.66 µM)
MIC [4]: 25 µg/mL (≈ 15.3 µM)
MIC [5]: 50 µg/mL (≈ 30.6 µM)

CC[C@H](C)[C@@H]1NC(=O)[C@@H](Cc2c[nH]c3ccccc23)NC(=O)[C@@H](CCC(N)=O)NC(=O)[C@H](CCC(=O)O)NC(=O)[C@@H](CCCNC(=N)N)NC(=O)[C@H](CC(C)C)NC(=O)[C@@H](Cc2ccccc2)N(C)C(=O)CNC(=O)[C@H](CO)NC(=O)[C@@H](CCCNC(=N)N)NC(=O)[C@@H](NC(=O)CC(O)CCCC(C)C)[C@@H](C)OC(=O)[C@H]([C@@H](C)O)NC1=O (single isomer, unassigned) [Peak P8]
MIC [1]: 12.5 µg/mL (≈ 7.59 µM)
MIC [2]: 12.5 µg/mL (≈ 7.59 µM)
MIC [3]: 12.5 µg/mL (≈ 7.59 µM)
MIC [4]: 25 µg/mL (≈ 15.2 µM)
MIC [5]: 50 µg/mL (≈ 30.4 µM)

CC[C@H](C)[C@@H]1NC(=O)[C@@H](Cc2c[nH]c3ccccc23)NC(=O)[C@@H](CCC(N)=O)NC(=O)[C@H](CCC(=O)O)NC(=O)[C@@H](CCCNC(=N)N)NC(=O)[C@H](CC(C)C)NC(=O)[C@@H](Cc2ccccc2)N(C)C(=O)CNC(=O)[C@H](CO)NC(=O)[C@@H](CCCNC(=N)N)NC(=O)[C@@H](NC(=O)CC(O)CCCC(C)C)[C@@H](C)OC(=O)[C@H]([C@@H](C)O)NC1=O (single isomer, unassigned) [Peak P9]
MIC [4]: 12.5 µg/mL (≈ 7.59 µM)
MIC [5]: 12.5 µg/mL (≈ 7.59 µM)
MIC [6]: 5 µg/mL (≈ 3.04 µM)
ED50 [7]: 0.3 μg/g-larva

CC(C)CC(O)CC(=O)N[C@@H]1C(=O)N[C@H](CCCNC(=N)N)C(=O)N[C@@H](CO)C(=O)NCC(=O)N(C)[C@H](Cc2ccccc2)C(=O)N[C@@H](CC(C)C)C(=O)N[C@H](CCCNC(=N)N)C(=O)N[C@@H](CCC(=O)O)C(=O)N[C@H](CCC(N)=O)C(=O)N[C@H](Cc2c[nH]c3ccccc23)C(=O)N[C@@H](C(C)C)C(=O)N[C@@H]([C@@H](C)O)C(=O)O[C@@H]1C (stereo partly drawn) [Peak P2] ({Hexanoyl(3-OH,5-Me)}-T[dR]SG[dNMeF]L[dR]E[dQ][dW]VT; ester 1-C)
MIC [1]: 6.3 µg/mL (≈ 3.93 µM)
MIC [2]: 12.5 µg/mL (≈ 7.79 µM)
MIC [3]: 12.5 µg/mL (≈ 7.79 µM)
MIC [4]: 50 µg/mL (≈ 31.2 µM)
MIC [5]: 50 µg/mL (≈ 31.2 µM)

CN[C@H](CC(C)C)C(=O)N[C@H]1C(=O)N[C@@H](CC(N)=O)C(=O)N[C@H]2C(=O)N[C@H]3C(=O)N[C@H](C(=O)N[C@H](C(=O)O)c4cc(O)cc(O)c4-c4cc3ccc4O)[C@H](O)c3ccc(c(Cl)c3)Oc3cc2cc(c3O[C@@H]2O[C@H](CO)[C@@H](O)[C@H](O)[C@H]2O[C@H]2C[C@](C)(N)[C@H](O)[C@H](C)O2)Oc2ccc(cc2Cl)[C@H]1O [Vancomycin]
ED50 [8]: 1.6 mg/kg
CFU/ml of S. aureus ([9]; 5 μg/ml, 15 minutes): 8.5 × 10^7 CFU/ml
CFU/ml of S. aureus ([9]; 5 μg/ml, 30 minutes): 4.9 × 10^7 CFU/ml
CFU/ml of S. aureus ([9]; 5 μg/ml, 60 minutes): 6.8 × 10^7 CFU/ml
CFU/ml of S. aureus ([9]; 5 μg/ml, 120 minutes): 3.4 × 10^7 CFU/ml

Gentamicin [GM]
CFU/ml of S. aureus ([9]; 2.5 μg/ml, 15 minutes): 2.6 × 10^7 CFU/ml
CFU/ml of S. aureus ([9]; 2.5 μg/ml, 30 minutes): 7.6 × 10^5 CFU/ml
CFU/ml of S. aureus ([9]; 2.5 μg/ml, 60 minutes): 1.6 × 10^5 CFU/ml
CFU/ml of S. aureus ([9]; 2.5 μg/ml, 120 minutes): 4.0 × 10^5 CFU/ml
